From US20210038607A1, “OXADIAZOLYLTHIOPHENE DERIVATIVES USEFUL AS HISTONE DEACETYLASE INHIBITORS” (Karus Therapeutics Limited, priority 2018, published 2021) come the findings set out here.

The experiment has as its system acetylated α-tubulin in A549 lung adenocarcinoma cells. In words: Acetylated α-tubulin in-cell western (ICW) assay. The format is cell-based. The conditions noted are these: Homo sapiens, 16 h exposure, relative to 40 μM scriptaid positive control, read-out: EC50 Ac-α-tubulin, A549 cells. The method, then:
Acetylated α-Tubulin and Histone H3 in-Cell Western (ICW) Assays
A549 cells were maintained in DMEM (Life Technologies)+10% FBS+2 mM glutamine & penicillin (10 μg/mL) and streptomycin ([…]. 10,000 A549 cells per well were plated into 96 well tissue culture plates (Corning) and incubated at 37° C. overnight in a humidified atmosphere containing 5% CO2 prior to addition of compounds. Compounds (dissolved in 100% DMSO) were diluted into cell culture media at 2× final assay concentration. 2× compound or DMSO (negative control) were added to cells (final DMSO concentration 0.4%). Untreated control wells received media. For acetylated α-tubulin assays, 40 μM scriptaid was used as a positive control. For acetylated histone H3 assays, 40 μM Trichostatin A (TSA) was used as a positive control. Cells were exposed to compound at 37° C. in a humidified atmosphere containing 5% CO2 for 16 h.
Measurement of the impact of compounds on levels of acetylated α-tubulin and histone H3 was performed using specific antibodies and near-infrared immunofluorescent dyes. Briefly, media was removed from wells of assay plates. Cells were washed once with PBS and fixed in 3.7% formaldehyde PBS solution at room temperature for 20 min. Cells were then permeabilised by washing 5 times in 0.1% triton-X-100 PBS at room temperature with gentle agitation for 5 min per wash. Non-specific antibody staining was blocked by the addition of Odyssey blocking buffer (Li-Cor) for 1.5 h at room temperature with gentle agitation. Cells were then incubated with primary antibody (mouse monoclonal anti-acetylated α-tubulin (clone 6-11B-1), Sigma or rabbit polyclonal anti-acetylated histone H3, Millipore) diluted in Odyssey blocking buffer at 4° C. with gentle shaking overnight (no antibody control and secondary antibody only wells were incubated with Odyssey blocking buffer only). Cells were washed five times with 0.1% tween PBS and labelled with secondary antibody (IR dye 800CW-conjugated goat anti mouse IgG or -goat anti rabbit IgG, Li-Cor) and cell stains Sapphire700 (Li-Cor) and Draq5 (Biostatus) diluted in Odyssey blocking buffer at room temperature in the dark with gentle shaking for 1 h (no antibody control wells were incubated with Odyssey blocking buffer only and secondary antibody only with diluted secondary antibody but no cell stains). Cells were washed with 0.1% Tween PBS five times and scanned using a Li-Cor Odyssey SA plate reader in 700 and 800 nm channels. Acetylated α-tubulin or histone H3 signal was normalised to cell number using the cell stain signal. Percentage increase in acetylated α-tubulin or histone H3 after compound treatment over the mean of DMSO treated controls, relative to scriptaid and TSA positive controls, respectively was calculated. EC50 values were calculated using GraphPad Prism software and nonlinear regression with 0% bottom and 100% top constraints.

Molecules are shown by their SMILES.

What is called EC50 is the concentration needed to bring the measured effect to its halfway point. `FC(F)(F)c1nc(-c2ccc(CN(c3cnccn3)c3cnccn3)s2)no1` [Example BA, N-(Pyrazin-2-yl)-N-({5-[5-(trifluoromethyl)-1,2,4-oxadiazol-3-yl]thiophen-2-yl}methyl)pyrazin-2-amine]: the EC50 is at most 1000 nM.
For the molecule `Cc1cnc(N(Cc2ccc(-c3noc(C(F)(F)F)n3)s2)c2cnccn2)cn1` [Example BH, 5-Methyl-N-(pyrazin-2-yl)-N-({5-[5-(trifluoromethyl)-1,2,4-oxadiazol-3-yl]thiophen-2-yl}methyl)pyrazin-2-amine], the EC50 is 1000 to 10000 nM.
`NC(=O)c1ccc(N(Cc2ccc(-c3noc(C(F)(F)F)n3)s2)c2cnccn2)nn1` [Example DQ, 6-[(Pyrazin-2-yl)({5-[5-(trifluoromethyl)-1,2,4-oxadiazol-3-yl]thiophen-2-yl}methyl)amino]pyridazine-3-carboxamide]: the EC50 was at most 1000 nM.
For `COC1CN(C(=O)c2ccc(N(Cc3ccc(-c4noc(C(F)(F)F)n4)s3)c3cnccn3)nn2)C1` [Example DR, 6-(3-Methoxyazetidine-1-carbonyl)-N-(pyrazin-2-yl)-N-({5-[5-(trifluoromethyl)-1,2,4-oxadiazol-3-yl]thiophen-2-yl}methyl)pyridazin-3-amine], the EC50 was at most 1000 nM.
As to `O=C(c1ccc(N(Cc2ccc(-c3noc(C(F)(F)F)n3)s2)c2cnccn2)nn1)N1CCOCC1` [Example DS, 6-(Morpholine-4-carbonyl)-N-(pyrazin-2-yl)-N-({5-[5-(trifluoromethyl)-1,2,4-oxadiazol-3-yl]thiophen-2-yl}methyl)pyridazin-3-amine], the EC50 is at most 1000 nM.
Take `O=C(O)c1cnnc(N(Cc2ccc(-c3noc(C(F)(F)F)n3)s2)c2cnccn2)c1` [Example DW, 6-[(Pyrazin-2-yl)({5-[5-(trifluoromethyl)-1,2,4-oxadiazol-3-yl]thiophen-2-yl}methyl)amino]pyridazine-4-carboxylic acid]: the 50% effective concentration (EC50) is at least 10000 nM.
For the molecule `NC(=O)c1cnnc(N(Cc2ccc(-c3noc(C(F)(F)F)n3)s2)c2cnccn2)c1` [Example DX, 6-[(Pyrazin-2-yl)({5-[5-(trifluoromethyl)-1,2,4-oxadiazol-3-yl]thiophen-2-yl}methyl)amino]pyridazine-4-carboxamide], the 50% effective concentration (EC50) is at most 1000 nM.
Regarding `CNC(=O)c1cnnc(N(Cc2ccc(-c3noc(C(F)(F)F)n3)s2)c2cnccn2)c1` [Example DY, N-Methyl-6-[(pyrazin-2-yl)({5-[5-(trifluoromethyl)-1,2,4-oxadiazol-3-yl]thiophen-2-yl}methyl)amino]pyridazine-4-carboxamide], the concentration for a half-maximal effect (EC50) was at most 1000 nM.
For `COC1CN(C(=O)c2cnnc(N(Cc3ccc(-c4noc(C(F)(F)F)n4)s3)c3cnccn3)c2)C1` [Example DZ, 5-(3-Methoxyazetidine-1-carbonyl)-N-(pyrazin-2-yl)-N-({5-[5-(trifluoromethyl)-1,2,4-oxadiazol-3-yl]thiophen-2-yl}methyl)pyridazin-3-amine], the 50% effective concentration (EC50) is at most 1000 nM.
With `O=C(c1cnnc(N(Cc2ccc(-c3noc(C(F)(F)F)n3)s2)c2cnccn2)c1)N1CCCC1` [Example EA, N-(Pyrazin-2-yl)-5-(pyrrolidine-1-carbonyl)-N-({5-[5-(trifluoromethyl)-1,2,4-oxadiazol-3-yl]thiophen-2-yl}methyl)pyridazin-3-amine], the EC50 is at most 1000 nM.
Consider `O=C(c1cnnc(N(Cc2ccc(-c3noc(C(F)(F)F)n3)s2)c2cnccn2)c1)N1CCOCC1` [Example EB, 5-(Morpholine-4-carbonyl)-N-(pyrazin-2-yl)-N-({5-[5-(trifluoromethyl)-1,2,4-oxadiazol-3-yl]thiophen-2-yl}methyl)pyridazin-3-amine], for which the EC50 was at most 1000 nM.
Regarding `CN1CCN(C(=O)c2cnnc(N(Cc3ccc(-c4noc(C(F)(F)F)n4)s3)c3cnccn3)c2)CC1` [Example EC, 5-(4-Methylpiperazine-1-carbonyl)-N-(pyrazin-2-yl)-N-({5-[5-(trifluoromethyl)-1,2,4-oxadiazol-3-yl]thiophen-2-yl}methyl)pyridazin-3-amine], the EC50 is at most 1000 nM.
Consider `O=C(c1cnnc(N(Cc2ccc(-c3noc(C(F)(F)F)n3)s2)c2cnccn2)c1)N1CCS(=O)(=O)CC1` [Example ED, 4-{6-[(Pyrazin-2-yl)({5-[5-(trifluoromethyl)-1,2,4-oxadiazol-3-yl]thiophen-2-yl}methyl)amino]pyridazine-4-carbonyl}-1λ^6-thiomorpholine-1,1-dione], for which the EC50 is at most 1000 nM.
Turning to `N#Cc1cnnc(N(Cc2ccc(-c3noc(C(F)(F)F)n3)s2)c2cnccn2)c1` [Example EE, 6-[(Pyrazin-2-yl)({5-[5-(trifluoromethyl)-1,2,4-oxadiazol-3-yl]thiophen-2-yl}methyl)amino]pyridazine-4-carbonitrile], the EC50 is at most 1000 nM.
With `FC(F)(F)c1cnnc(N(Cc2ccc(-c3noc(C(F)(F)F)n3)s2)c2cnccn2)c1` [Example EF, N-(Pyrazin-2-yl)-5-(trifluoromethyl)-N-({5-[5-(trifluoromethyl)-1,2,4-oxadiazol-3-yl]thiophen-2-yl}methyl)pyridazin-3-amine], the EC50 was 1000 to 10000 nM.
The figure for `COc1cncc(N(Cc2ccc(-c3noc(C(F)(F)F)n3)s2)c2cc(C(F)(F)F)cnn2)n1` [Example EN, N-(6-Methoxypyrazin-2-yl)-5-(trifluoromethyl)-N-({5-[5-(trifluoromethyl)-1,2,4-oxadiazol-3-yl]thiophen-2-yl}methyl)pyridazin-3-amine] is at most 1000 nM; for `FC(F)(F)c1cnnc(N(Cc2ccc(-c3noc(C(F)(F)F)n3)s2)c2cccnn2)c1` [Example ER, N-(Pyridazin-3-yl)-5-(trifluoromethyl)-N-({5-[5-(trifluoromethyl)-1,2,4-oxadiazol-3-yl]thiophen-2-yl}methyl)pyridazin-3-amine] it is at least 10000 nM.
In the case of `O=C(O)c1cnnc(N(Cc2ccc(-c3noc(C(F)(F)F)n3)s2)c2cc(C(F)(F)F)cnn2)c1` [Example ES, 6-[({5-[5-(Trifluoromethyl)-1,2,4-oxadiazol-3-yl]thiophen-2-yl}methyl)[5-(trifluoromethyl)pyridazin-3-yl]amino]pyridazine-4-carboxylicacid] it was at least 10000 nM; in that of `FC(F)(F)c1cnnc(N(Cc2ccc(-c3noc(C(F)(F)F)n3)s2)c2cc(C(F)(F)F)cnn2)c1` [Example EU, 5-(Trifluoromethyl)-N-({5-[5-(trifluoromethyl)-1,2,4-oxadiazol-3-yl]thiophen-2-yl}methyl)-N-[5-(trifluoromethyl)pyridazin-3-yl]pyridazin-3-amine], at most 1000 nM.
For the molecule `CNC(=O)c1ccc(N(Cc2ccc(-c3noc(C(F)(F)F)n3)s2)c2cnccn2)nn1` [Example FC, N-Methyl-6-[(pyrazin-2-yl)({5-[5-(trifluoromethyl)-1,2,4-oxadiazol-3-yl]thiophen-2-yl}methyl)amino]pyridazine-3-carboxamide], the 50% effective concentration (EC50) was at most 1000 nM.
In the case of `O=C(c1ccc(N(Cc2ccc(-c3noc(C(F)(F)F)n3)s2)c2cnccn2)nn1)N1CC[S+]([O-])CC1` [Example FD, 4-{6-[(Pyrazin-2-yl)({5-[5-(trifluoromethyl)-1,2,4-oxadiazol-3-yl]thiophen-2-yl}methyl)amino]pyridazine-3-carbonyl}-1lambda4-thiomorpholin-1-one], the EC50 is at most 1000 nM.
